Laboratory results: PubChem BioAssay (NCI)
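Method: 48-hour compound exposure of cells in 96-well plates, five concentrations, linear interpolation of endpoints. TGI denotes the concentration required for complete inhibition of growth.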

How the values were obtained:
Assay in all cases: NCI-60 cell line screen, 48 h
786-0 renal = tested on: 786-0 renal
A498 renal = tested on: A498 renal
BT-549 breast = tested on: BT-549 breast
COLO 205 colon = tested on: COLO 205 colon
DU-145 prostate = tested on: DU-145 prostate
HCT-116 colon = tested on: HCT-116 colon
HL-60(TB) leukemia = tested on: HL-60(TB) leukemia
NCI-H23 lung = tested on: NCI-H23 lung
NCI/ADR-RES ovarian = tested on: NCI/ADR-RES ovarian
OVCAR-4 ovarian = tested on: OVCAR-4 ovarian
PC-3 prostate = tested on: PC-3 prostate
SF-539 CNS = tested on: SF-539 CNS
SNB-75 CNS = tested on: SNB-75 CNS
SR leukemia = tested on: SR leukemia
UACC-62 melanoma = tested on: UACC-62 melanoma

Row | SMILES | TGI (786-0 renal) [µM] | TGI (A498 renal) [µM] | TGI (BT-549 breast) [µM] | TGI (COLO 205 colon) [µM] | TGI (DU-145 prostate) [µM] | TGI (HCT-116 colon) [µM] | TGI (HL-60(TB) leukemia) [µM] | TGI (NCI-H23 lung) [µM] | TGI (NCI/ADR-RES ovarian) [µM] | TGI (OVCAR-4 ovarian) [µM] | TGI (PC-3 prostate) [µM] | TGI (SF-539 CNS) [µM] | TGI (SNB-75 CNS) [µM] | TGI (SR leukemia) [µM] | TGI (UACC-62 melanoma) [µM]
1 | O=c1[nH]c2nccn2c(Cl)c1Br | > 100 | > 100 | 47.2 | 34.4 | > 100 | > 100 | 33.5 | 36.3 | 73.2 | 34.9 | > 100 | > 100 | 77.8 | 48.7 | 43.3
2 | CC1=C(C#N)C(=O)N(/N=C/c2ccc(Cl)cc2)C(=O)/C1=c1\o/c(=C2/C(=O)N(/N=C/c3ccc(Cl)cc3)C(=O)C(C#N)=C2C)c2nccnc12 | > 100 | > 100 | > 100 | > 100 | > 100 | > 100 | > 100 | > 100 | > 100 | > 100 | > 100 | > 100 | 85.3 | > 100 | > 100
3 | CCCOc1ccc(/C=C/C2=[N+](CCO)CCO2)cc1 | > 100 | > 100 | > 100 | > 100 | > 100 | > 100 | > 100 | > 100 | > 100 | > 100 | > 100 | > 100 | > 100 | > 100 | > 100
4 | NC(=O)CC1(O)C=CC(=O)C=C1 | > 100 | > 100 | > 100 | > 100 | > 100 | > 100 | > 100 | > 100 | > 100 | > 100 | > 100 | > 100 | > 100 | > 100 | > 100
5 | COc1ccc2cc(CNCCCN3CCN(CCCNCc4ccc5cc(OC)ccc5c4)CC3)ccc2c1 | 2.88 | 3.07 | 3.26 | 2.83 | 2.88 | 2.56 | 0.594 | 3.5 | 6.51 | 3.48 | 2.36 | 3.39 | 3.08 | 0.658 | 1.36
6 | CC1=CC[C@@]2(C)[C@@H]([C@@H]1C)[C@H]1CC[C@@H]3[C@@]4(C)CC[C@H](O)C(C)(C)[C@@H]4CC[C@@]3(C)[C@]1(C)C[C@@H]2O | 42.2 | > 39.8 | > 64.3 | 32.1 | 25.6 | > 58 | > 100 | > 55.1 | 61.7 | > 82.2 | 40.6 | > 55.7 | > 100 | 7.34 | > 68.8
7 | COC(=O)C(Cc1ccccc1)C(=O)NC(CNC(=O)OCc1ccccc1)C(=O)OCc1ccccc1 (stereo not given) | 62.7 | > 81.4 | > 100 | 37.7 | > 100 | 77.9 | > 67.9 | > 100 | > 100 | > 100 | > 100 | > 100 | 64.8 | > 69.2 | 49.3
8 | c1ccc2c(c1)n1c(N3CCOCC3)[n+]3ccccc3c1c1c3cccc[n+]3c(N3CCOCC3)n21 | > 100 | > 100 | > 100 | > 100 | > 100 | > 100 | > 100 | > 100 | > 100 | > 100 | > 100 | > 100 | > 100 | > 100 | > 100
9 | CCN(CC)CCN1CCN=c2c3cc(OC)ccc3n3cnc4ccc1c2c43 | 1.72 | 1.82 | 3.26 | 2.6 | 4.39 | 2.84 | 1.2 | 4.61 | 2.39 | 1.26 | 1.63 | 0.969 | 2.27 | 1.64 | 7.3
10 | CCC/C(Cl)=N\OC(=O)Nc1ccc(Br)cc1 | 18.5 | 32.2 | 62.6 | 7.19 | 27.2 | 26.2 | 7.22 | 40.6 | 40.5 | 48.2 | 28.4 | 32.9 | 29 | 18.4 | 44.7
11 | CC(=O)NNc1nc(C)c(C(/C=C/c2ccccc2O)=N/NC(=O)c2ccncc2)s1 | > 100 | > 100 | > 100 | > 100 | > 100 | > 100 | > 100 | > 100 | > 100 | > 100 | > 100 | > 100 | > 100 | > 100 | > 100
